Measurements from ChEMBL document CHEMBL1221256, “A mutant selective anti-estrogen is a pure antagonist on EREs and AP-1 response elements” (Bioorg Med Chem Lett, 2010).
Active and inactive are the calls of the source. No cut-off for these calls is given here.

Tests used:
[1] = target: T1, Estrogen receptor (Homo sapiens) (UniProt P03372); test: Agonist activity at human wild type ERalpha expressed in human HeLa cells co-expressing AP-1 assessed as transactivation activity by luciferase reporter gene assay; assay type: functional, cell-based
T1 sequence (whole entry): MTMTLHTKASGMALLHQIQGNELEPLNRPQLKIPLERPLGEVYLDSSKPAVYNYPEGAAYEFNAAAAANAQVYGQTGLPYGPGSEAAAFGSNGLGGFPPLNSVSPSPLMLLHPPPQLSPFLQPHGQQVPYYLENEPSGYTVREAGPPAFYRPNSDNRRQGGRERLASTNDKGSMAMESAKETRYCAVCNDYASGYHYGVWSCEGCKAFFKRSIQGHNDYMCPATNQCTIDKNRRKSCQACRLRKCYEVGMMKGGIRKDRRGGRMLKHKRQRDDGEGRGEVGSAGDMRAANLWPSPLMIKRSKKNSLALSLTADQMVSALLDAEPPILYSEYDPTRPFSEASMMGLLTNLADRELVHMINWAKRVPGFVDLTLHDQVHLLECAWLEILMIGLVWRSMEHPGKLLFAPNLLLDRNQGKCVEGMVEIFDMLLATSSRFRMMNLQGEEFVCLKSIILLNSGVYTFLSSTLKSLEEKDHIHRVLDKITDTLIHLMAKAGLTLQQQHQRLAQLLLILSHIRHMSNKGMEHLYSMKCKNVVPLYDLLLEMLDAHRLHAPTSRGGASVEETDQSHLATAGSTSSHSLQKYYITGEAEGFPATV

Estrogen receptor beta [2] = target: Estrogen receptor beta (Homo sapiens, UniProt Q92731, E305A)
Estrogen receptor [3] = target: T2, Estrogen receptor (Homo sapiens, UniProt P03372)
T2 sequence (P03372 whole entry): T1 sequence (whole entry)

[4] = tested on: Estrogen receptor beta (Homo sapiens), Q92731 [E305A]; test: Antagonist activity at human ERbeta E305A mutant expressed in human HeLa cells co-expressing AP-1 assessed as inhibition of transactivation activity at up to 10 uM by luciferase reporter gene assay; assay type: functional, cell-based
Estrogen receptor [5] = target: Estrogen receptor (Homo sapiens, UniProt P03372, E353A)
Estrogen receptor beta [6] = target: T3, Estrogen receptor beta (Homo sapiens, UniProt Q92731)
Estrogen receptor beta [7] = target: T3, Estrogen receptor beta; remark: listed apart in the source
Description: Antagonist activity at human wild type ERbeta expressed in human HeLa cells co-expressing AP-1 assessed as inhibition of transactivation activity by luciferase reporter gene assay

Estrogen receptor beta [8] = target: T3, Estrogen receptor beta; remark: listed apart in the source

T3 sequence (Q92731 whole entry): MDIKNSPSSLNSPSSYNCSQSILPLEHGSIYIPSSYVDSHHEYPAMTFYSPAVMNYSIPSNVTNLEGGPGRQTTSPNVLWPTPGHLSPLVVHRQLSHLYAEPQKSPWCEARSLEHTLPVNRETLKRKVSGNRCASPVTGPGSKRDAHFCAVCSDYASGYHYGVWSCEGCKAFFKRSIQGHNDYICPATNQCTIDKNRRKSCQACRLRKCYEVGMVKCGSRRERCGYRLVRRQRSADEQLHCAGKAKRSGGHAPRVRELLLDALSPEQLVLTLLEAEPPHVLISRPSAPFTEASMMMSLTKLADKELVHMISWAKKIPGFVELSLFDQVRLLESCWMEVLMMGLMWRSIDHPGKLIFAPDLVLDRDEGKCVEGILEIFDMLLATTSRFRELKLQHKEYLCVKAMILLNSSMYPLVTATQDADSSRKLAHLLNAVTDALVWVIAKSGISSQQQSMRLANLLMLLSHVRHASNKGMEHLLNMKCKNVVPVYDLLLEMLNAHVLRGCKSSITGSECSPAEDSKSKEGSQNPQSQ
Estrogen receptor beta (Homo sapiens), Q92731 [E305A], sequence (Q92731 whole entry E305A): as the sequence (Q92731 whole entry) above, with E305A counted along it
Estrogen receptor beta (Homo sapiens, UniProt Q92731, E305A), sequence (Q92731 whole entry E305A): as the sequence (Q92731 whole entry) above, with E305A counted along it
Estrogen receptor (Homo sapiens, UniProt P03372, E353A), sequence (P03372 whole entry E353A): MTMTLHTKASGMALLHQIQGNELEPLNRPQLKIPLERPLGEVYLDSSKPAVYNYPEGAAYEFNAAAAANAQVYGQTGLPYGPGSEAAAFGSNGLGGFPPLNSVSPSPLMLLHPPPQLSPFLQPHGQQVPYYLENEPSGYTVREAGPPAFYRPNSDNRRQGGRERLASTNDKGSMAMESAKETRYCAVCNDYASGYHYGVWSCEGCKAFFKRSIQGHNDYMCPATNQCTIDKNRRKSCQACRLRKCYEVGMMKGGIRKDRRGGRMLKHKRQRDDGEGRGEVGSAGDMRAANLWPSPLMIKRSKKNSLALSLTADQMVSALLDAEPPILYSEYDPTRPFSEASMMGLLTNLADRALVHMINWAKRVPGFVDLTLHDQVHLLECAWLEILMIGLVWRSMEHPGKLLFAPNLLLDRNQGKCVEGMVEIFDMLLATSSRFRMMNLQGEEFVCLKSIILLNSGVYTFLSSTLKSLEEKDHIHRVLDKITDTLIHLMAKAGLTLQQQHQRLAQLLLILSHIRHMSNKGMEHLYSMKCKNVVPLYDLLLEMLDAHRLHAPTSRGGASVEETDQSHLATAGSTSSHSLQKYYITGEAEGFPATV

CCCCN(C)C(=O)CCCCCCCCCC[C@@H]1Cc2cc(O)ccc2[C@H]2CC[C@]3(C)[C@@H](O)CC[C@H]3[C@H]12
Activity [1]: Active

O=C(O)/C=C/c1ccc2c(C(=O)c3ccc(OCCN4CCCCC4)cc3)c(-c3ccc(O)cc3)sc2c1
IC50 (Estrogen receptor beta [2]): > 10000 nM | IC50 (Estrogen receptor [3]): 82 nM | Activity [4]: inactive | IC50 (Estrogen receptor [5]): 212 nM | IC50 (Estrogen receptor beta [6]): 104 nM | EC50 (Estrogen receptor beta [7]): 150 nM | IC50 (Estrogen receptor beta [8]): > 10000 nM
